Measured values taken from patent US7348160B2, “Phosphoamidase assay” (Merck Patent GmbH, priority 2002, dated 2008).
Where two headings read alike, the source gives them in different places.

Assays:
[1] = target: T1, PHP1 (Homo sapiens, UniProt Q9NRX4); assay: pH-dependence of conversion of fluorogenic and chromogenic substrates by PHP1; assay type: biochemical; conditions: for acceptance as substrate by PHP1: pH 5-9, 0.1 μM PHP1; for turnover rate by PHP1 in more alkaline media: pH above the maximum, up to pH 9
T1 sequence (Q9NRX4 1-125): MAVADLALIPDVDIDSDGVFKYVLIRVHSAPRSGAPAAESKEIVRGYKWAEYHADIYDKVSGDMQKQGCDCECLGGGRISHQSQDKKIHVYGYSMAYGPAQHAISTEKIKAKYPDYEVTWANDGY
Excerpt: Because it is well known that the use of phospho fluorophores like DIFMUP, MUP, DDAO or FDP as phosphatase substrates have certain limitations due to the compatibility of the substrate pKa-values with the pH-optima of the respective phosphatase, the pH-dependence of the PHP1 reactivity towards the aforementioned fluorogenic substrates is to be determined. As shown in FIG. 1 the pH is varied from pH=5-9 in steps of 0.5 pH-units. In order to avoid undesired fluorescence flattening effects due to high absorption by the accumulating reaction product the initial reaction velocity is used as relative measure for the pH-dependence of PHP1-reactivity towards the selected substrate.
To start the reaction PHP1 was added from a pre dilution in the respective reaction buffer to yield a final concentration of 0.1 μM. The reaction was monitored by recording the increase in relative fluorescence at the respective fluorescence emission maxima (Fluoromax Gemini XL microplate reader).

[2] = target: T1, PHP1; assay: Kinetic analysis of the conversion of FDP and DiFMUP by PHP1; assay type: biochemical; conditions: pH 7.0, 0.1 μM PHP1
Protocol: The KM-values for DiFMUP and FDP can be approximated by recording the initial reaction velocity in dependence of the substrate concentration, as observed by the increase in relative fluorescence at the respective fluorescence emission maxima upon addition of PHP1. […] This effect limits the range of substrate variation. For FDP concentrations >20 μM the signal quenching disturbs reaction rate measurements detrimentally. […] Measurements for DiFMUP are limited to concentrations below 500 μM.
To start the reaction PHP1 was added from a stock solution to a final concentration of 0.1 in μM. The reaction was monitored by recording the increase in relative fluorescence at the respective fluorescence emission maxima in an SLM fluorescence spectrometer. To allow for quantification the fluorescence signal was normalised using a standard curve recorded for a serial dilution of fully dephosphorylated DiFMUP and FDP respectively. All recordings were carried out at the same PM-voltage and integration time with correction for the relative signal gain.

[3] = target: T2, T-cell tyrosine phosphatase (Homo sapiens, UniProt P17706); conditions: from literature (Kerby et al. 2001); cited from earlier work
T2 sequence (P17706 1-415): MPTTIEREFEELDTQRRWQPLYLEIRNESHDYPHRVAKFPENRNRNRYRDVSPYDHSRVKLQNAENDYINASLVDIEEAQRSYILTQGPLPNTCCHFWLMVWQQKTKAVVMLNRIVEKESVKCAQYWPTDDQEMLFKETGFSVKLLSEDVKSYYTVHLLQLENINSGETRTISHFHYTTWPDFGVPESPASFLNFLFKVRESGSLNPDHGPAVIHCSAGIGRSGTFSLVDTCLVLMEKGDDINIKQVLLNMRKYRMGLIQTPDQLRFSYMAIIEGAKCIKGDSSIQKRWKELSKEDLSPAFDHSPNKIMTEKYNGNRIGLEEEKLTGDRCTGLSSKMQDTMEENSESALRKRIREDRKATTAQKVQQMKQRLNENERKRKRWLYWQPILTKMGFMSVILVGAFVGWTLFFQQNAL

[4] = target: T1, PHP1; assay: Screening assay for inhibitors or activators of PHP1 with DiFMUP substrate; assay type: biochemical
Protocol: In order to test whether the phosphoamidase and protein phosphoamidase substrates of the present invention are suitable for the for identification of inhibitors or activators of these proteins, the activity of PHP1 was determined with the substrate DiFMUP in presence of bisperoxo-(bipyridine)-oxovanadate [(bp)V(bipy)], a well characterized inhibitor of protein phosphotyrosine phosphatase(FIG. 9). The inhibitor concentration varied from 0.01 to 30 μM, the enzyme concentration was kept at 0.1 μM and substrate concentration at 50 μM. After incubation for 15 min at room temperature the fluorescence was detected at 450 nm on excitation at 360 nm.
The reaction mixtures for inhibitor screening were prepared by serial 2 fold dilution of the inhibitor bpV(bipy) (Alexis Biochemicals San Diego) starting at 60 μM into 50 μl of the assay buffer consisting of 25 mM Hepes pH=7, 20 mM NaCl, 1 mM MgCl2, 0.01 mg/ml BSA. In a next step 50 μl of a solution of 0.3 μM PHP1 in assay buffer was added to each well and incubated for 5 min at room temperature. In order to initiate the reaction a pre dilution of 50 μM DiFMUP-substrate in assay-buffer was rapidly added to all wells. The reaction was monitored by recording the increase in relative fluorescence at the respective fluorescence emission maxima (Fluoromax Gemini XL microplate reader). The relative activity was calculated using the RFU derived from a control reaction without inhibitor.

[5] = 0.1 μM PHP1, 50 μM DiFMUP, inhibitor 0.01 to 30 μM

| Molecule | acceptance as substrate by PHP1 [1] | turnover rate by PHP1 in more alkaline media [1] | further results |
| --- | --- | --- | --- |
| CC1(C)C2=C(Cl)C(=O)C(Cl)=CC2=Nc2ccc(OP(=O)(O)O)cc21 [DDAO, 9H-(1,3-dichloro-9,9-dimethyl-acridin-2-one-7-yl)phosphate] | accepts | stays relatively constant |  |
| Cc1cc(=O)oc2c(F)c(OP(=O)(O)O)c(F)cc12 [DiFMUP, 6,8-difluoro-4-methylum-belliferyl phosphate] | accepts | decrease in turnover rate | Km ([2]; estimated from Lineweaver-Burk plot, read-out: KM-value for PHP1): > 1000 µM; Km [3]: 20 µM |
| O=[N+]([O-])c1ccc(OP(=O)(O)O)cc1 [pNPP, para-nitrophenol phosphate] | not recognised and processed by PHP1 at any pH |  |  |
| bisperoxo-(bipyridine)-oxovanadate [(bp)V(bipy)] |  |  | concentration showing inhibitory effect on PHP1 [4, 5]: above 10 μM; inhibition of PHP1 activity [4, 5]: reproducible and clearly dose-dependent inhibition; activation of PHP1 activity ([4]; equimolar concentrations (0.1 μM PHP1), 50 μM DiFMUP): by a factor of two |
| fluorescein diphosphate [FDP] | accepts | second distinct maximum | Km ([2]; non-linear curve fit, high uncertainty, read-out: Michaelis constant KM for PHP1): ~20 µM |
